# Test results: US9290541B2, “TCL1 peptides for immunotherapy” (Board of Regents, The University of Texas System, priority 2011, dated 2016)
# How the values were obtained:
# [1] = tested on: autologous FL tumor cells; assay: Mechanism of cytotoxicity of TCL1-specific CTLs against autologous follicular lymphoma cells; format: cell-based, human; conditions: effector:target 20:1; 4 hour chromium-51 release; antibodies 10 μg/ml
# Description: FIG. 10: Mechanism of cytotoxicity of TCL1-specific CTLs against autologous follicular lymphoma cells. TCL1-specific T cells were generated from PBMC obtained from a FL patient and cultured with autologous FL tumor cells preincubated with or without 10 μg/ml of MHC class I, class II, and isotype control antibodies at a ratio of 20:1 (Effector:Target). A standard 4 hour chromium-51 release assay was performed. MHC class I but not MHC class II or isotype control antibodies inhibited the cytolysis autologous lymphoma cells.
# [2] = tested on: TCL165-79 peptide-specific T cells; assay: IFN-γ ELISA of peptide-specific T cells with peptide-pulsed T2 cells or B lymphoblastoid cell lines; format: cell-based, human; conditions: normal donor-derived T cells; 18 hours
# Description: FIGS. 3A-E: TCL1-specific cytotoxic T cells can be generated from normal donors. (FIG. 3A) PBMCs from HLA-A2^+ normal donors were stimulated with overlapping 15-mer peptides spanning the entire length of the TCL1 protein (see Table 2). T cells from each condition were washed and incubated with autologous CD3-depleted PBMC as antigen-presenting cells (APC) in the presence or absence of the corresponding peptide. After 18 hours, the production of IFN-γ was determined in the supernatants by ELISA. Asterisk indicates significant IFN-γ production compared with control (P<0.05). Representative data from one of three normal donors tested is shown. (FIG. 3B) T cell lines generated from HLA-A2^+ normal donors using TCL165-79 peptide were incubated with APC in the presence or absence of the TCL165-79 peptide or control HIV Gag77-85 peptide, and intracellular cytokine assay was performed. The percentage of CD4^+ and CD8^+ T cells producing IFN-γ are shown. (FIG. 3C) TCL165-79 peptide-specific T cells were incubated with T2 cells or EBV-transformed B lymphoblastoid cell lines (IHW1003, IHW1019, IHW1089, and IHW1135) mismatched at their MHC class I locus in the presence of the TCL165-79 peptide or control HIV Gag77-85 peptide. IFN-γ production was determined as in (FIG. 3A). The HLA-A alleles for each of the cell lines are shown. (FIG. 3D, FIG. 3E) A 4-hour ^51Cr-release cytotoxicity assay was performed. TCL165-79 peptide-specific T cells were incubated with T2 cells alone or T2 cells pulsed with TCL165-79 peptide or control HIV Gag77-85 peptide, at various effector:target ratios. For MHC blocking assay, an effector:target ratio of 20:1 was used in the presence or absence of isotype control antibody or blocking antibodies against MHC class I, MHC class II, HLA-A2, or HLA-B and C. […]
# FIGS. 4A-D: TCL171-78 is the minimal HLA-A*0201-binding peptide. […] After 18 hours, the production of IFN-γ was determined in the supernatants by ELISA. (FIG. 4B) T2 cells were incubated with TCL165-79-derived truncated peptides (SEQ ID NOS:1-2; SEQ ID NOS:12-17; SEQ ID NOS:3-11; and SEQ ID NO:18), and the HLA-A2 binding affinity of each peptide was determined by flow cytometry. The T2 binding index was calculated as described in Materials and Methods. […] (FIG. 4D) TCL165-79 peptide-specific CD8^+ T cells or irrelevant T-cell line were stained with TCL171-78 or HIV Gag77-85 tetramers and analyzed by flow cytometry. […]
# (§1) FIGS. 6A-E: TCL171-78 peptide-specific T cells can be generated from lymphoma patients. (FIG. 6A) PBMC and tumor-infiltrating lymphocytes (TILs) derived from HLA-A2^+ patients with chronic lymphocytic leukemia (CLL) or follicular lymphoma (FL) were stimulated in vitro with TCL165-79 After five stimulations, IFN-γ production in response to TCL165-79 peptide was determined as in FIG. 3A. […]
# T2 cells = assay: 4-hour 51Cr-release cytotoxicity assay with peptide-pulsed T2 cells; format: cell-based, human; conditions: 4-hour 51Cr release
# Description: FIGS. 3A-E: TCL1-specific cytotoxic T cells can be generated from normal donors. (FIG. 3A) PBMCs from HLA-A2^+ normal donors were stimulated with overlapping 15-mer peptides spanning the entire length of the TCL1 protein (see Table 2). T cells from each condition were washed and incubated with autologous CD3-depleted PBMC as antigen-presenting cells (APC) in the presence or absence of the corresponding peptide. After 18 hours, the production of IFN-γ was determined in the supernatants by ELISA. Asterisk indicates significant IFN-γ production compared with control (P<0.05). Representative data from one of three normal donors tested is shown. (FIG. 3B) T cell lines generated from HLA-A2^+ normal donors using TCL165-79 peptide were incubated with APC in the presence or absence of the TCL165-79 peptide or control HIV Gag77-85 peptide, and intracellular cytokine assay was performed. The percentage of CD4^+ and CD8^+ T cells producing IFN-γ are shown. (FIG. 3C) TCL165-79 peptide-specific T cells were incubated with T2 cells or EBV-transformed B lymphoblastoid cell lines (IHW1003, IHW1019, IHW1089, and IHW1135) mismatched at their MHC class I locus in the presence of the TCL165-79 peptide or control HIV Gag77-85 peptide. IFN-γ production was determined as in (FIG. 3A). The HLA-A alleles for each of the cell lines are shown. (FIG. 3D, FIG. 3E) A 4-hour ^51Cr-release cytotoxicity assay was performed. TCL165-79 peptide-specific T cells were incubated with T2 cells alone or T2 cells pulsed with TCL165-79 peptide or control HIV Gag77-85 peptide, at various effector:target ratios. For MHC blocking assay, an effector:target ratio of 20:1 was used in the presence or absence of isotype control antibody or blocking antibodies against MHC class I, MHC class II, HLA-A2, or HLA-B and C. All cytotoxicity assays were performed in triplicate wells and mean and standard deviation are shown.
# (§2) FIGS. 4A-D: TCL171-78 is the minimal HLA-A*0201-binding peptide. (FIG. 4A) TCL165-79 peptide-specific T cells derived from HLA-A2^+ normal donors were incubated in the presence or absence of T2 cells and TCL165-79 derived truncated peptides (SEQ ID NOS:1-2; SEQ ID NOS:12-17; SEQ ID NOS:3-11; and SEQ ID NO:18) Flu matrix peptide (FMP58-66) and Gag77-85 peptide were used as controls. After 18 hours, the production of IFN-γ was determined in the supernatants by ELISA. (FIG. 4B) T2 cells were incubated with TCL165-79-derived truncated peptides (SEQ ID NOS:1-2; SEQ ID NOS:12-17; SEQ ID NOS:3-11; and SEQ ID NO:18), and the HLA-A2 binding affinity of each peptide was determined by flow cytometry. The T2 binding index was calculated as described in Materials and Methods. […] (FIG. 4D) TCL165-79 peptide-specific CD8^+ T cells or irrelevant T-cell line were stained with TCL171-78 or HIV Gag77-85 tetramers and analyzed by flow cytometry. […]
# as §1
# CD8+ T cells = assay: Tetramer staining by flow cytometry; format: cell-based, human; conditions: for percentage of tetramer positive CD8+ T cells, median / percentage of tetramer positive CD8+ T cells, range: two in vitro stimulations with TCL165-79
# Description: FIGS. 4A-D: TCL171-78 is the minimal HLA-A*0201-binding peptide. (FIG. 4A) TCL165-79 peptide-specific T cells derived from HLA-A2^+ normal donors were incubated in the presence or absence of T2 cells and TCL165-79 derived truncated peptides (SEQ ID NOS:1-2; SEQ ID NOS:12-17; SEQ ID NOS:3-11; and SEQ ID NO:18) Flu matrix peptide (FMP58-66) and Gag77-85 peptide were used as controls. After 18 hours, the production of IFN-γ was determined in the supernatants by ELISA. (FIG. 4B) T2 cells were incubated with TCL165-79-derived truncated peptides (SEQ ID NOS:1-2; SEQ ID NOS:12-17; SEQ ID NOS:3-11; and SEQ ID NO:18), and the HLA-A2 binding affinity of each peptide was determined by flow cytometry. The T2 binding index was calculated as described in Materials and Methods. (FIG. 4C) TCL165-79 (SEQ ID NO:1) peptide-specific T cells were incubated with T2 cells pulsed with TCL165-79-derived truncated peptides (SEQ ID NO:1; SEQ ID NO:8; SEQ ID NO:10; SEQ ID NO:11; SEQ ID NO:18) or control HIV Gag77-85 peptide and a 4-hour ^51Cr-release cytotoxicity assay was performed. The percent specific lysis is shown. (FIG. 4D) TCL165-79 peptide-specific CD8^+ T cells or irrelevant T-cell line were stained with TCL171-78 or HIV Gag77-85 tetramers and analyzed by flow cytometry. The percentage of tetramer positive T cells is shown. Data in panels A-D are representative of three independent experiments each.
# FIGS. 6A-E: TCL171-78 peptide-specific T cells can be generated from lymphoma patients. (FIG. 6A) PBMC and tumor-infiltrating lymphocytes (TILs) derived from HLA-A2^+ patients with chronic lymphocytic leukemia (CLL) or follicular lymphoma (FL) were stimulated in vitro with TCL165-79 After five stimulations, IFN-γ production in response to TCL165-79 peptide was determined as in FIG. 3A. (FIG. 6B, FIG. 6E) The cytotoxic function of TCL165-79 peptide-specific T cells generated above was tested against T2 cells pulsed with TCL165-79 peptide or HIV Gag77-85 peptide (FIG. 6B) or primary autologous or allogeneic HLA-A2^+ or HLA-A2^− mantle cell lymphoma (MCL Tu) or FL tumor cells (FL Tu) or tumor-free PBMC from MCL3 and FL5 patients (MCL3-PB and FL5-PB) or HLA-A2^+ MCF-7 cell line (FIG. 6E). (FIG. 6C) The percentage of tetramer positive CD8^+ T cells in each of the TCL1-specific T-cell lines generated from lymphoma patients is shown. (FIG. 6D) The expression of TCL1 in each of the primary lymphoma samples as determined by flow cytometry is shown. All cytotoxicity assays were performed in triplicate wells and mean and standard deviation are shown. CLL1-PB-T: TCL1-specific CTL generated from peripheral blood T cells of CLL patient 1; FL5-PB-T: TCL1-specific CTL generated from peripheral blood T cells of FL patient 5; FL5-TILs-T: TCL1-specific CTL generated from tumor infiltrating T cells of FL patient 5.
# FIGS. 7A-B: TCL171-78 peptide-specific T cells are increased in lymphoma patients. PBMCs from HLA-A2^+ normal donors (ND, n=8) or lymphoma patients [chronic lymphocytic leukemia (CLL, n=2), mantle cell lymphoma (MCL, n=5); follicular lymphoma (FL, n=4); diffuse large B-cell lymphoma (n=2); splenic marginal zone B-cell lymphoma (SMZL, n=2)] were stimulated in vitro twice with TCL165-79 peptide and stained with TCL171-78 tetramer or HIV Gag77-85 tetramer. Representative data of the tetramer staining (FIG. 7A) and results from all samples analyzed (FIG. 7B) are shown. P value on the top of graph represents comparison between normal donors and all lymphoma patient samples. P values to the right represent comparison between normal donors and patients from each lymphoma subtype. All P values were calculated by two-tailed Student's t test.
# Flow cytometry. For intracellular staining, tumor or normal B cells were first surface stained with CD3 and CD20 and then fixed and permeabilized using BD Biosciences Cytofix/Cytoperm™ Plus Fixation/Permeabilization kit as per manufacturer's instructions. […]
# HLA-A2 = target: T1, HLA-A2 (Homo sapiens, UniProt P04439, D140Y/D185E/D98H/E176V/E277Q/G131W/G231S/I119V/I121R/I166T/I218V/L300P/L318F/N151K/N90K/P208A/P217A/Q86G/Q94H/R138H/R169H/T345S); assay: HLA-A2-binding assay (T2 binding index); conditions: T2 cells, 20 μg/ml peptide, 24 hours
# T1 construct: endogenous in cells; host or cells: T2 hybridoma cells (TAP-deficient, HLA-A2+)
# Description: as §2
# TAP-deficient T2 cells were incubated with 20 μg/ml of peptides and 3 μg/ml of β2-microglobulin (Sigma-Aldrich, Cat # M4890) for 24 hours at 37° C. and 5% CO2 in air. The cells were then stained with anti-HLA-A2 PE antibody (BD Biosciences, Cat #560168), and the level of HLA-A2 expression was determined by flow cytometry. […]
# [3] = PBMC of HLA-A2+ lymphoma patients (N=15)
molecule,measurement,setting,value
C/C=C/[C@H]1O[C@@](O)([C@@H](C)[C@H](O)[C@H](C)[C@H]2OC(=O)/C(OC)=C/C(C)=C/[C@@H](C)[C@@H](O)[C@@H](CC)[C@@H](O)[C@H](C)C/C(C)=C/C=C/[C@@H]2OC)C[C@@H](O[C@H]2C[C@@H](O)[C@H](OC(N)=O)[C@@H](C)O2)[C@@H]1C [Concanamycin A],inhibition of cytolysis of autologous lymphoma cells by TCL1-specific CTLs,[1],significantly inhibited
LLPIMWQL [TCL171-78],IFN-γ production by TCL165-79 peptide-specific T cells with T2 cells pulsed with truncated peptides,[2],induced significant IFN-γ production
same,lysis of T2 cells pulsed with truncated peptides by TCL165-79 peptide-specific T cells,T2 cells,specifically lysed
same,"percentage of tetramer positive CD8+ T cells, median",CD8+ T cells; [3],2.8%
same,"percentage of tetramer positive CD8+ T cells, range",CD8+ T cells; [3],0.88-6%
same,tetramer positive CD8+ T cells,"CD8+ T cells; T-cell lines from lymphoma patients, TCL171-78 tetramer",10.8-23%
same,"percentage of tetramer positive CD8+ T cells, median",CD8+ T cells; normal donor PBMC (N=8),1.35%
same,"percentage of tetramer positive CD8+ T cells, range",CD8+ T cells; normal donor PBMC (N=8),0.38-2.2%
same,tetramer positive TCL165-79 peptide-specific CD8+ T cells,"CD8+ T cells; normal donor-derived T cell line, TCL171-78 tetramer",8.2%
same,binding to HLA-A2,HLA-A2,bound to HLA-A2
LLPIMWQLY [TCL171-79],lysis of T2 cells pulsed with truncated peptides by TCL165-79 peptide-specific T cells,T2 cells,specifically lysed
SLLPIMWQL [TCL170-79],lysis of T2 cells pulsed with truncated peptides by TCL165-79 peptide-specific T cells,T2 cells,specifically lysed
